Holding throughout (assay): microbe, parasite or virus in culture
One assay has as its system E. faecium E7314. It is filed as cell-based, Enterococcus faecium. As to conditions: Enterococcus faecium, VRE. The gist of the method: (§1)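 Twofold serial dilutions, biological triplicates, combined with an equal volume of bacterial suspension (10^6 CFU/mL) in TSB/0.002% polysorbate 80. Incubation lasted 24 h at 37 °C, shaking at 600 rpm. Median of replicates gives MIC.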

The subject of the next assay is E. faecium E155. It is filed as cell-based, Enterococcus faecium. As to conditions: Enterococcus faecium, VRE. In a few lines: as §1
A further assay concerns E. faecalis E7406. It is filed as cell-based, Enterococcus faecalis. As to conditions: Enterococcus faecalis, VRE. The gist of the method:
as §1

The next assay relates to E. faecalis E7604. It is filed as cell-based, Enterococcus faecalis. As to conditions: Enterococcus faecalis, VRE. The gist of the method: as §1

≈ marks a conversion by molar mass, not a printed value.

Regarding `CN[C@H](CC(C)C)C(=O)N[C@H]1C(=O)N[C@@H](CC(N)=O)C(=O)N[C@H]2C(=O)N[C@H]3C(=O)N[C@H](C(=O)N[C@H](C(=O)O)c4cc(O)cc(O)c4-c4cc3ccc4O)[C@H](O[C@H]3C[C@](C)(N)[C@@H](O)[C@H](C)O3)c3ccc(c(Cl)c3)Oc3cc2cc(c3O[C@@H]2O[C@H](CO)[C@@H](O)[C@H](O)[C@H]2O[C@H]2C[C@](C)(NCc3ccc(-c4ccc(Cl)cc4)cc3)[C@@H](O)[C@H](C)O2)Oc2ccc(cc2Cl)[C@H]1O` [Oritavancin], the MIC was found to be 0.125 µg/mL (≈ 0.0697 µM) in the assay on E. faecium E7314, 0.5 µg/mL (≈ 0.279 µM) in the assay with E. faecium E155, 0.0625 µg/mL (≈ 0.0349 µM) in the assay with E. faecalis E7406 and 0.063 µg/mL (≈ 0.0351 µM) with E. faecalis E7604.

(Values after patent publication US20230174584A1, “Antibiotic Compounds” (priority 2019, published 2023).)
